Target: Acetylcholinesterase (Torpedo marmorata, UniProt P07692)
Test: Enzyme Assay
Conditions: pH 4; 25 °C
Method: The inhibitory activity of the equilibrated mixtures was determined. The activity of AChE was monitored by following the linear change in absorbance at 412 nm over 30s at 25C.

Acetylcholinesterase, sequence (P07692 whole entry): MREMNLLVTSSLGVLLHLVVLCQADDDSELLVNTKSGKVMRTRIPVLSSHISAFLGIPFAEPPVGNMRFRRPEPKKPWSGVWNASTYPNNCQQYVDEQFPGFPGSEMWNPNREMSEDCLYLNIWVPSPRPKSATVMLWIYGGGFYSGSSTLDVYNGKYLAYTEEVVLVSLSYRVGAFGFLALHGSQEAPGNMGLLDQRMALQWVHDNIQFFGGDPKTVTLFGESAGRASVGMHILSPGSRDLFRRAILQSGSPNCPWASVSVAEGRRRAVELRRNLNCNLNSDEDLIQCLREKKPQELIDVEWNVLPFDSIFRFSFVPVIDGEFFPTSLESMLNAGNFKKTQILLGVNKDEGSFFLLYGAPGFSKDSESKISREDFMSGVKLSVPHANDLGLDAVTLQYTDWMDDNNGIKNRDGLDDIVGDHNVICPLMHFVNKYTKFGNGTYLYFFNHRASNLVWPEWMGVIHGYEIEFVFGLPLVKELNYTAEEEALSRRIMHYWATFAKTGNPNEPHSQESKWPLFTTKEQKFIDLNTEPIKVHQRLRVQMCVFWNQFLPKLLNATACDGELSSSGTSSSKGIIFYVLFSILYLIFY

| Compound | IC50 |
| --- | --- |
| c1cc[n+](CCCCCCCCCC[n+]2ccccc2)cc1 [1,10-di(1-pyridiniumyl)decane; diiodide] | 25.8 nM |
| c1cc[n+](CCCCCCCCCCCC[n+]2ccccc2)cc1 [1,12-Bis(pyridinium)dodecane] | 16 nM |
| C[N+](C)(C)CCCCCCCCCCCC[N+](C)(C)C [N1,N1,N1,N12,N12,N12-hexamethyldodecane-1,12-diaminium bromide] | 93.2 nM |
| O=C(C[n+]1ccccc1)N/N=C/c1ccc(/C=N/NC(=O)C[n+]2ccccc2)cc1 [Terephthalaldehyde, 4-I-4] | 2.3 nM |

Reference: BindingDB's records for doi:10.1002/1439-7633(20010601)2 (Universit&Eacute, 2001)
